Several values for one entry are separate records, joined by “and”; a condition that tells them apart may be missing. Equal values may be shown once.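 Protocol summary: plate cells (96-well), add compound at 5 concentrations, incubate 48 h, interpolate endpoints linearly. Abbreviation: GI50, concentration required for 50% inhibition of growth. TGI is the concentration that stops growth completely.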
Columns and labels:
Assay in all cases: NCI tumour cell line growth inhibition, 48 h
NCI-H23 lung = test system: NCI-H23 lung
SK-MEL-28 melanoma = test system: SK-MEL-28 melanoma
ACHN renal = test system: ACHN renal
CAKI-1 renal = test system: CAKI-1 renal
CCRF-CEM leukemia = test system: CCRF-CEM leukemia
MCF7 breast = test system: MCF7 breast
HCT-116 colon = test system: HCT-116 colon
IGROV1 ovarian = test system: IGROV1 ovarian

| SMILES | GI50 (NCI-H23 lung) | TGI (NCI-H23 lung) | GI50 (SK-MEL-28 melanoma) | TGI (SK-MEL-28 melanoma) | GI50 (ACHN renal) | TGI (ACHN renal) | GI50 (CAKI-1 renal) | TGI (CAKI-1 renal) | GI50 (CCRF-CEM leukemia) | TGI (CCRF-CEM leukemia) | GI50 (MCF7 breast) | TGI (MCF7 breast) | GI50 (HCT-116 colon) | TGI (HCT-116 colon) | GI50 (IGROV1 ovarian) | TGI (IGROV1 ovarian) |
| --- | --- | --- | --- | --- | --- | --- | --- | --- | --- | --- | --- | --- | --- | --- | --- | --- |
| O=c1oc2ccccc2c(Cl)c1Cl | 5.56 µM | 18.9 µM | 2.68 µM | 7.76 µM | 2.49 µM | 5.92 µM | 2.69 µM | 8.97 µM | 0.595 µM | 30 µM | 2.83 µM | 10.6 µM | 3.49 µM | 13.6 µM | – | – |
| CC(C)(C)[Si](C)(C)OC1[C@@H](O[Si](C)(C)C(C)(C)C)[C@@H](CNC(=O)NC(=O)NC(=O)CI)O[C@H]1n1cnc2c(NC(=O)Nc3ccccc3)ncnc21 (some centres undefined) | 0.187 µM | 1.09 µM | 9.69 µM | 22.8 µM | 1.41 µM | 9.75 µM | 0.0966 µM | 0.406 µM | 0.0301 µM | 0.102 µM | 6.1 µM | 17.4 µM | 2.82 µM | 9.08 µM | 0.113 µM | 0.246 µM |
| O=C(O)C1CCCN1Cc1c[nH]c2ccccc12 (centres undefined) | – | > 100 µM | – | > 100 µM | – | > 100 µM | – | > 100 µM | – | > 100 µM | – | > 100 µM | – | > 100 µM | – | > 100 µM |
| N#Cc1c2ccccc2c2nnc3cc(C(F)(F)F)ccc3n12 | – | – | 92.3 µM | > 100 µM | 25.7 µM | > 100 µM | 38.6 µM | > 100 µM | – | – | 10.7 µM | 80.9 µM | 25.4 µM | > 100 µM | 46.9 µM | > 100 µM |
| CCOC(=O)c1[nH]c2cccc3c2c1CC(Br)C3=O (centres undefined) | – | 35.9 µM | – | 38.4 µM | – | 20.2 µM | – | 23.6 µM | – | > 100 µM | – | 84.3 µM | – | 7.79 µM | – | 20.4 µM |
| Cc1ccc2c(/C=C/C(=O)c3cc(CN4CCOCC4)c(O)c4nc(C)ccc34)cc(CN3CCOCC3)c(O)c2n1 | 1.13 µM | 4.5 µM | 1.08 µM | 12 µM | 0.535 µM | 2.06 µM | 0.297 µM | 1.53 µM | 0.322 µM | 1.12 µM | 0.356 µM | 2.74 µM | 0.412 µM | 3.41 µM | 0.622 µM | 3.6 µM |
| Cc1c2ncccc2c(C)c2c1[nH]c1ccc(O)cc12 | 11.9 µM and 19 µM | – | – | 27.3 µM | 3.06 µM | 12.4 µM and 18.7 µM | – | 15.8 µM | 4.65 µM | 5.49 µM | 5.95 µM and 8.58 µM | 15.2 µM and 50 µM | 2.91 µM and 6.58 µM | 11 µM and 64.6 µM | 7.29 µM and 11.6 µM | 21.5 µM and 102 µM |
| CN(C)CCCNC(=O)c1cc(NC(=O)c2cc(NC(=O)CCCN3c4ccccc4C=Cc4ccccc43)cn2C)cn1C | 10.6 µM | 54.8 µM | – | – | 14.7 µM | 33.6 µM | 18.5 µM | 43.9 µM | 2.82 µM | 12.7 µM | 4.2 µM | > 100 µM | 3.35 µM | > 100 µM | 3.36 µM | 8.8 µM |
| NCCCn1c2c(c3ccccc3c1=O)C(=O)c1cc3c(cc1-2)OCO3 | 0.324 µM | 1.38 µM | 2.23 µM | 9.37 µM | 0.061 µM | 0.295 µM | 0.247 µM | 2.27 µM | 0.0271 µM | 0.187 µM | 0.126 µM | > 52.7 µM | 0.213 µM | – | 0.374 µM | 9.2 µM |
| Nc1nc(SCC(=O)O)[nH]c(=O)c1N | – | > 100 µM | – | > 100 µM | – | > 100 µM | – | > 100 µM | – | 7.24 µM | – | > 100 µM | – | > 100 µM | – | > 100 µM |
| COC(=O)/C=C1\SC(=Nc2ccc(C(F)(F)F)cc2)N(CCc2c[nH]c3ccccc23)C1=O | 1.76 µM | 3.64 µM | 1.87 µM | 3.55 µM | 1.56 µM | 2.9 µM | – | – | 1.95 µM | 7.22 µM | 1.16 µM | 4.53 µM | 1.21 µM | 2.47 µM | 1.82 µM | 3.59 µM |
| O=C(Nc1ncc([N+](=O)[O-])s1)c1cccc([N+](=O)[O-])c1 | 2.87 µM | > 78.2 µM | 4.64 µM | > 55.5 µM | 5.41 µM | > 68.1 µM | 3.7 µM | 22.7 µM | 2.39 µM | > 29.2 µM | 3.02 µM | > 88.2 µM | 2.72 µM | 16.5 µM | 3.98 µM | > 56.3 µM |
| COc1cc(/C=C2\CC(C)CC3C2=NN(c2ccccc2)C3c2cc(OC)c(OC)c(OC)c2)cc(OC)c1OC (centres undefined) | – | – | 11.2 µM | 39.7 µM | 11 µM | 44.6 µM | 26.7 µM | > 100 µM | 7.75 µM | > 100 µM | 10.6 µM | > 100 µM | 6.21 µM | 33.1 µM | 20.2 µM | > 100 µM |
| CCOC(=O)Oc1c(OC)cc(C(=O)c2ccc(OC)c(OC(=O)CCl)c2OC)cc1OC | 3.86 µM | > 100 µM | 2.31 µM | > 100 µM | 3.66 µM | > 100 µM | 3.76 µM | > 100 µM | 0.662 µM | > 100 µM | 0.88 µM | > 100 µM | 0.494 µM | 36.2 µM | 3.36 µM | > 100 µM |
| COc1ccc(-c2nc3sccn3c2/C=C/C(=O)c2cc(OC)c(OC)c(OC)c2)cc1OC | 2.16 µM | 5.89 µM | – | – | 3.24 µM | > 100 µM | 3.01 µM | > 100 µM | 2.64 µM | > 100 µM | – | – | 2.31 µM | 6.44 µM | 1.2 µM | 3.31 µM |
| O=C(Nc1cccc(C2=NCCN2)c1)c1ccc(OCCCOc2ccc(C(=O)Nc3cccc(C4=NCCN4)c3)cc2)cc1 | – | – | – | – | 21.8 µM | > 100 µM | 4.67 µM | 84.6 µM | 4 µM | > 100 µM | – | – | – | – | – | – |
| COC(=O)C/C(C)=C/[C@@H](O)[C@H]1O[C@@H]2CC/C(Cl)=C/C/C=C(/C)[C@H](OC(C)=O)CC(=O)O[C@@H]1C2 | 1.14 µM | 7.74 µM | 1.04 µM | 5.75 µM | 1.16 µM | 4.51 µM | – | – | – | – | 4.86 µM | 15.7 µM | 3.22 µM | 7.85 µM | 1.68 µM | 15.7 µM |
